Data taken from US4822790A, “1-Sulfo-2-oxoazetidine derivatives and their production” (Takeda Chemical Industries, Ltd., priority 1980, dated 1989).

Columns and labels:
[1] = test system: Proteus vulgaris IFO 3988; experiment: Antibacterial test (MIC), Proteus vulgaris IFO 3988; format: cell-based; conditions: Proteus vulgaris, IFO3988, read-out: Minimum inhibitory concentration (MIC)
Description: (§1) The following is media and compounds employed in the antibacterial test.
(§2) TSA=Trypticase soy agar [Baltimore Biologicals (U.S.A.)]
(§3) B-TSA=Blood trypticase soy agar

[2] = test system: Pseudomonas morganii IFO 3168; experiment: Antibacterial test (MIC), Pseudomonas morganii IFO 3168; format: cell-based; conditions: IFO3168, medium TSA, read-out: Minimum inhibitory concentration (MIC)
Description: as §1, §2, §3

[3] = test system: Escherichia coli 0-111; experiment: Antibacterial test (MIC), Escherichia coli 0-111; format: cell-based; conditions: Escherichia coli, 0111; medium TSA; read-out: Minimum inhibitory concentration (MIC)
Description: as §1, §2, §3

[4] = test system: Klebsiella pneumoniae DT; experiment: Antibacterial test (MIC), Klebsiella pneumoniae DT; format: cell-based; conditions: Klebsiella pneumoniae, read-out: Minimum inhibitory concentration (MIC)
Description: as §1, §2, §3

[5] = biological target: T1, β-lactamase produced by Enterobacter cloacae PN 1282 (Enterobacter cloacae, UniProt P05364); experiment: Inhibitor concentration required to inhibit the β-lactamase (cephalosporinase) activity by 50%, micro-iodometric method; format: biochemical; conditions: 0.05M phosphate buffer (pH 7), 30° C., 10 min preincubation, cephalothin 0.1 mM, read-out: I50 (inhibitor concentration required to inhibit the enzyme activity by 50%) (converted)
T1 construct: cephalothin substrate, micro-iodometric
Experimental: "Determination of the inhibitor concentration required to inhibit the enzyme activity by 50%"
The β-lactamase produced by Enterobacter cloacae PN 1282 is used as a typical example of cephalosporinase. The β-lactamase is incubated in 0.05M phosphate buffer (pH 7) with an appropriate dilution of an inhibitor preparation at 30° C. for 10 minutes. Cephalothin is then added in an amount sufficient to produce a final concentration of 0.1 mM, and the enzymatic reaction is allowed to proceed for 10 minutes. The enzyme activity is determined by the micro-iodometric method [Journal of general Microbiology, vol. 33, page 121 (1963)]. Hereinafter, the inhibitor concentration required to inhibit the enzyme activity by 50% is expressed as I50.

[6] = test system: Pseudomonas aeruginosa IFO 3455; experiment: Antibacterial test (MIC), Pseudomonas aeruginosa IFO 3455; format: cell-based; conditions: Pseudomonas aeruginosa, IFO3455, read-out: Minimum inhibitory concentration (MIC)
Description: as §1, §2, §3

[7] = test system: Streptococcus mitis America; experiment: Antibacterial test (MIC), Streptococcus mitis America; format: cell-based; conditions: Streptococcus mitis, read-out: Minimum inhibitory concentration (MIC)
Description: as §1, §2, §3

[8] = test system: Corynebacterium diphtheriae Toronto; experiment: Antibacterial test (MIC), Corynebacterium diphtheriae Toronto; format: cell-based; conditions: Corynebacterium diphtheriae, read-out: Minimum inhibitory concentration (MIC)
Description: as §1, §2, §3

[9] = test system: Streptococcus faecium IFO 3128; experiment: Antibacterial test (MIC), Streptococcus faecium IFO 3128; format: cell-based; conditions: Enterococcus faecium, IFO3128, read-out: Minimum inhibitory concentration (MIC)
Description: as §1, §2, §3

[10] = test system: Streptococcus pyogenes E-14; experiment: Antibacterial test (MIC), Streptococcus pyogenes E-14; format: cell-based; conditions: Streptococcus pyogenes, E14, read-out: Minimum inhibitory concentration (MIC)
Description: as §1, §2, §3

[11] = test system: Proteus morganii IFO 3168; experiment: Antibacterial test (MIC), Proteus morganii IFO 3168; format: cell-based; conditions: Morganella morganii, IFO3168, read-out: Minimum inhibitory concentration (MIC)
Description: as §1, §2, §3

[12] = test system: Enterobacter cloacae IFO 12937; experiment: Antibacterial test (MIC), Enterobacter cloacae IFO 12937; format: cell-based; conditions: Enterobacter cloacae, IFO12937, read-out: Minimum inhibitory concentration (MIC)
Description: as §1, §2, §3

[13] = test system: Staphylococcus aureus 1840; experiment: Antibacterial test (MIC), Staphylococcus aureus 1840; format: cell-based; conditions: Staphylococcus aureus, 1840, read-out: Minimum inhibitory concentration (MIC)
Description: as §1, §2, §3

[14] = test system: Streptococcus pyogenes S-8; experiment: Antibacterial test (MIC), Streptococcus pyogenes S-8; format: cell-based; conditions: Streptococcus pyogenes, S8, read-out: Minimum inhibitory concentration (MIC)
Description: as §1, §2, §3

[15] = test system: Staphylococcus aureus FDA209P; experiment: Antibacterial test (MIC), Staphylococcus aureus FDA209P; format: cell-based
Description: as §1, §2, §3

[16] = test system: Escherichia coli NIHJ JC-2; experiment: Antibacterial test (MIC), Escherichia coli NIHJ JC-2; format: cell-based; conditions: Escherichia coli, NIHJJC2, read-out: Minimum inhibitory concentration (MIC)
Description: as §1, §2, §3

[17] = test system: Bordetella bronchiseptica Sagami; experiment: Antibacterial test (MIC), Bordetella bronchiseptica Sagami; format: cell-based; conditions: Bordetella bronchiseptica, read-out: Minimum inhibitory concentration (MIC)
Description: as §1, §2, §3

[18] = test system: Staphylococcus aureus 308A-1; experiment: Antibacterial test (MIC), Staphylococcus aureus 308A-1; format: cell-based; conditions: Staphylococcus aureus, 308A1, read-out: Minimum inhibitory concentration (MIC)
Description: as §1, §2, §3

[19] = test system: Streptococcus pneumoniae Type I; experiment: Antibacterial test (MIC), Streptococcus pneumoniae Type I; format: cell-based; conditions: Streptococcus pneumoniae, read-out: Minimum inhibitory concentration (MIC)
Description: as §1, §2, §3

[20] = test system: Pseudomonas aeruginosa U 31; experiment: Antibacterial test (MIC), Pseudomonas aeruginosa U 31; format: cell-based; conditions: Pseudomonas aeruginosa, U31, read-out: Minimum inhibitory concentration (MIC)
Description: as §1, §2, §3

[21] = test system: Proteus mirabilis IFO 3849; experiment: Antibacterial test (MIC), Proteus mirabilis IFO 3849; format: cell-based; conditions: Proteus mirabilis, IFO3849, read-out: Minimum inhibitory concentration (MIC)
Description: as §1, §2, §3

[22] = test system: Escherichia coli T-7; experiment: Antibacterial test (MIC), Escherichia coli T-7; format: cell-based; conditions: Escherichia coli, T7; medium TSA; read-out: Minimum inhibitory concentration (MIC)
Description: as §1, §2, §3

[23] = test system: Serratia marcescens IFO 12648; experiment: Antibacterial test (MIC), Serratia marcescens IFO 12648; format: cell-based; conditions: Serratia marcescens, IFO12648, read-out: Minimum inhibitory concentration (MIC)
Description: as §1, §2, §3

[24] = test system: Candida albicans TA; experiment: Antibacterial test (MIC), Candida albicans TA; format: cell-based; conditions: Candida albicans, read-out: Minimum inhibitory concentration (MIC)
Description: as §1, §2, §3

[25] = test system: Citrobacter freundii IFO 12681; experiment: Antibacterial test (MIC), Citrobacter freundii IFO 12681; format: cell-based; conditions: Citrobacter freundii, IFO12681, read-out: Minimum inhibitory concentration (MIC)
Description: as §1, §2, §3

[26] = test system: Acinetobacter calcoaceticus IFO 13006; experiment: Antibacterial test (MIC), Acinetobacter calcoaceticus IFO 13006; format: cell-based; conditions: Acinetobacter calcoaceticus, IFO13006, read-out: Minimum inhibitory concentration (MIC)
Description: as §1, §2, §3

T1 sequence (P05364 21-381): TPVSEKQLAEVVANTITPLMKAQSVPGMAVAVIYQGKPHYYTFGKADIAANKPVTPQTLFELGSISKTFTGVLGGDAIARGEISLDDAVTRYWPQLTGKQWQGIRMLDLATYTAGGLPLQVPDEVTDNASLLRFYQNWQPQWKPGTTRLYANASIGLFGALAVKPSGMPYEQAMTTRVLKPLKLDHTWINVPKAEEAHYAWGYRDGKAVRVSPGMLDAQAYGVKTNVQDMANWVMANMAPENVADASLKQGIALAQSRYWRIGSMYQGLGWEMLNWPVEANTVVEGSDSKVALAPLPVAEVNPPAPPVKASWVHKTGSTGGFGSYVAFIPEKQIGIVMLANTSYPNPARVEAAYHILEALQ

Question: Which MIC [1] does the source give for `CCN1CCN(C(=O)N[C@@H](C(=O)NC2(OC)CN(S(=O)(=O)O)C2=O)c2ccccc2)C(=O)C1=O` (single isomer, unassigned) [Compound C, Sodium 3-[D(-)-N-(4-ethyl-2,3-dioxo-1-piperazinocarbonyl)phenylglycinamido]-3-methoxy-2-oxoazetidine-1-sulfonate] here?
Answer: 12.5 µg/mL

Question: What about the MIC [2] of the same compound?
Answer: > 100 µg/mL

Question: What about the MIC [3] of the same compound?
Answer: 12.5 µg/mL

Question: What about the MIC [4] of the same compound?
Answer: 12.5 µg/mL

Question: `CON=C(C(=O)N[C@@H]1C(=O)N(S(=O)(=O)O)[C@@H]1SC)c1csc(N)n1` was tested. Which IC50 [5] did it give?
Answer: 759 nM

Question: For `CS[C@@H]1[C@H](NC(=O)c2c(-c3c(Cl)cccc3Cl)noc2C)C(=O)N1S(=O)(=O)O`, which IC50 [5] is on record?
Answer: 96.5 nM

Question: For `CS[C@@H]1[C@H](NC(=O)C(=NOC(C)(C)C(=O)O)c2csc(N)n2)C(=O)N1S(=O)(=O)O`, which IC50 [5] is on record?
Answer: 406 nM

Question: How did the MIC [6] turn out when `CON=C(C(=O)NC1CN(S(=O)(=O)[O-])C1=O)c1csc(N)n1.[Na+]` (stereo not drawn) [Compound A, Sodium 3-[2-(2-amino-4-thiazolyl)-2-methoxyiminoacetamido]-2-oxoazetidine-1-sulfonate] was run?
Answer: 6.25 µg/mL

Question: And the MIC [7]?
Answer: 25 µg/mL

Question: What about the MIC [8] of the same compound?
Answer: 1.56 µg/mL

Question: And the MIC [9]?
Answer: > 100 µg/mL

Question: What about the MIC [1] of the same compound?
Answer: 1.56 µg/mL

Question: What about the MIC [10] of the same compound?
Answer: 3.13 µg/mL

Question: What about the MIC [11] of the same compound?
Answer: 25 µg/mL

Question: And the MIC [12]?
Answer: > 100 µg/mL

Question: And the MIC [13]?
Answer: 100 µg/mL

Question: What about the MIC [14] of the same compound?
Answer: 3.13 µg/mL

Question: And the MIC ([15]; Staphylococcus aureus, FDA209P, read-out: Minimum inhibitory concentration (MIC))?
Answer: 50 µg/mL

Question: And the “Minimum inhibitory concentration (MIC)” value ([15]; medium B-TSA)?
Answer: 50 µg/mL

Question: What about the MIC [16] of the same compound?
Answer: 0.78 µg/mL

Question: And the MIC [17]?
Answer: 100 µg/mL

Question: And the MIC [18]?
Answer: 25 µg/mL

Question: And the MIC [19]?
Answer: 12.5 µg/mL

Question: What about the MIC [20] of the same compound?
Answer: > 100 µg/mL

Question: What about the MIC [21] of the same compound?
Answer: 6.25 µg/mL

Question: And the MIC [22]?
Answer: > 100 µg/mL

Question: And the MIC [23]?
Answer: 12.5 µg/mL

Question: What about the MIC [24] of the same compound?
Answer: > 100 µg/mL

Question: And the MIC [25]?
Answer: 1.56 µg/mL

Question: And the MIC [26]?
Answer: 6.25 µg/mL

Question: What about the MIC [3] of the same compound?
Answer: 0.39 µg/mL

Question: And the MIC [4]?
Answer: 0.78 µg/mL

Question: For `CON=C(C(=O)N[C@@H]1C(=O)N(S(=O)(=O)O)[C@H]1Sc1ccccc1)c1csc(N)n1`, which IC50 [5] is on record?
Answer: 59 nM
